The results in this text go back to US7206699B2, “Methods for measuring therapy resistance” (Virco N.V., priority 2000, dated 2007).

The assay relates to HIV-1. The conditions noted are these: for Geometric Mean Phenotype: fold change in IC50 vs wild type; for Average Phenotype (log): log fold change.
[1] abbreviates: RT codon 41 ANY, 184 ANY, 215 ANY, N 13255.
[2] abbreviates: RT codon 41 L, 184 WT, 215 WT, N 54.
The mark [3] stands for this setting: RT codon 41 WT, 184 V/I, 215 F/Y, N 673.
The mark [4] stands for this setting: RT codon 41 WT, 184 V/I, 215 WT, N 2172.
Setting [5] is: RT codon 41 WT, 184 WT, 215 WT, N 4826.

Read-outs that look alike come from different tables or passages of the source.

Text: The whole process can be divided into three phases: molecular biology, transfection and susceptibility testing.
• Viral RNA fragments extracted from patient's blood sample • Complementary DNA (cDNA) of the gag-PR-RT sequence, through to codon 400 formed via reverse transcription • Gag-PT-RT sequence multiplied using two rounds of PCR • Purification of the DNA fragments • Creation of laboratory proviral clone with gag-PR-RT sequence deleted • Insertion of the clone into bacterial plasmids for reproduction of large quantities. Transfection This is the process by which viral genes are transferred to a cell. • 1. The gag-PR-RT sequences from the patient sample and the plasmid fragments are mixed with CD4+, MT4 cells. • 2. Electroporation takes place: the cells are subject to a short (milliseconds), but strong current in a cuvette producing transient openings in the cell membrane, through which both the gag-PR-RT DNA fragment and the plasmid fragment enter. • 3. In a relatively small proportion of the cells, both fragments will meet up and, probably supported by a cellular enzyme, recombine to form a complete HIV-1 genome that can now be converted into infectious virus particles. • 4. The recombinant virus is then grown in this cell culture for approximately 8 days, until the cytopathogenic effect or CPE reaches a sufficient level. • 5. The medium is then centrifuged to separate out the cells and the supernatant contains large quantities of recombinant virus—the virus stock harvest. • 6. The virus is then titrated to achieve a known concentration. Susceptibility Testing
Different concentrations of the antiviral agents are placed in the 384 microwells of a microtiter test plate. Several wells are used for each concentration and the mean results used to increase reliability. • 2. A set dilution of the recombinant virus stock or wild type control virus is added to each microwell. • 3. A set dilution of MT4 cells containing a fluorescent reporter gene system is also added to each microwell. • 4. The plate is incubated for 3 days during which time the recombinant virus will replicate in the MT4 cells unless inhibited by the antiviral drug. Replication triggers the reporter gene, which produces proteins which fluoresce. • 5. The amount of viral replication at each concentration of drug is measured by computerized spectrophotometry, relative to the wild type virus controls. • 6. The susceptibility of the virus to each drug is expressed as a fold change in IC50 relative to wild type virus. • 7.
Plasma samples were obtained from patients and submitted to laboratories for routine assessment of drug susceptibility.

Regarding `Cc1cn([C@H]2C[C@H](N=[N+]=[N-])[C@@H](CO)O2)c(=O)[nH]c1=O` [AZT, zidovudine], the “Geometric Mean Phenotype” value is recorded as 3.9 fold under setting [1]; 1.7 fold under setting [2]; 6.2 fold under setting [3]; 1.3 fold under setting [4]; 1.3 fold under setting [5]. The “mean fold resistance, increase” value (genetic clusters with multiple mutations conferring AZT resistance, FIG. 8) is on record as ~100 fold. The “effect of including the 184V mutation together with AZT resistance mutations” value (genetic clusters with vs without 184V/I, FIG. 8) is “substantial reduction in the predicted magnitude of AZT resistance”. For the same compound, the “Average Phenotype (log)” value came out at 0.59 under setting [1]; 0.24 under setting [2]; 0.79 under setting [3]; 0.10 under setting [4]; 0.12 under setting [5]. Besides, the “mean fold resistance of genetic cluster, in words” value (virus harbouring the 184V mutation, FIG. 8) was “slightly reduced level of susceptibility”.
